From patent US11274090B2, “P300/CBP HAT inhibitors” (Constellation Pharmaceuticals, Inc., priority 2018, dated 2022)
pIC50: −log10 of the molar value.

Biological target: p300 HAT domain (residues 1287-1666) (Homo sapiens (Human), UniProt Q09472)
Assay: p300 HAT SPA assay (scintillation proximity assay, acetylation of biotinylated H3(1-21) peptide)
Type: biochemical
Conditions: average of at least 2 replicate titrations
How it was run: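 Scintillation proximity readout of acetylated biotin-H3(1-21) captured on streptavidin plates after 1.5 hr at RT; enzyme was Ni2+/anion-exchange-purified HAT domain in 20 mM Hepes pH 7.5. Inhibitor IC50s calculated from the data.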

Chain of p300 HAT domain (residues 1287-1666) (Q09472 1287-1666): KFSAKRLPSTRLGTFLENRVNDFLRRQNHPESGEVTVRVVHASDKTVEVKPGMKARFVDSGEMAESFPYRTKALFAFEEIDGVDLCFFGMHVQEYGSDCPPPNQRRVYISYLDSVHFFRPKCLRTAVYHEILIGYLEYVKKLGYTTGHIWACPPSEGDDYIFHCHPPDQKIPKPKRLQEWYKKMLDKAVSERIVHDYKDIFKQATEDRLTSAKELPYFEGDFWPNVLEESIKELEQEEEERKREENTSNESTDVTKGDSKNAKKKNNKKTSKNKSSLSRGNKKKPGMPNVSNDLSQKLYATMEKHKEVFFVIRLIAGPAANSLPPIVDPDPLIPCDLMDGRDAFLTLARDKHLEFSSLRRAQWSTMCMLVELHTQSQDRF

Row | Molecule | pIC50
1 | Cc1cnc(-c2ccc(NC(=O)[C@@H](NCCc3ccc(Cl)cc3)c3ccccc3)cc2)[nH]1 (single isomer, unassigned) [9 Isomer 1] | < 5.30
2 | Cc1cc(C#N)nn1CCNC(C(=O)Nc1ccc(-c2cnn(C)c2)cn1)c1ccccc1 (single isomer, unassigned) [145 Isomer 1] | 6.11
3 | CC(Cc1ccc(Cl)cc1)NC(C(=O)Nc1ccc(-c2cnn(C)c2)cc1)c1ccccc1 (single isomer, unassigned) [3 Isomer 3] | < 5.30
4 | Cc1ncc(-c2ccc(NC(=O)[C@@H](NC[C@H](C)c3ccc(C#N)cc3)c3ccccc3)nc2)cn1 (single isomer, unassigned; isomer 2) [6 Isomer 2] | < 5.70
5 | CC(CNC(C(=O)Nc1ccc(-c2cnn(C3CCC3)c2)cn1)c1ccccc1)c1ccc(C#N)cc1 (single isomer, unassigned) [52 Isomer 3] | 7.51
6 | O=C(Nc1ccc(-c2cccnn2)cc1)C(NCCc1ccc(Cl)cc1)c1ccccc1 (single isomer, unassigned) [10 Isomer 2] | 6.24
7 | CC(CNC(C(=O)Nc1ccc(-c2cnn(C)c2)cc1)c1ccccc1)c1ccc(Cl)cc1 (single isomer, unassigned) [2 Isomer 4] | < 5.30
8 | Cn1cc(-c2ccc(NC(=O)C(NCCc3ccc(C#N)cc3F)c3ccccc3)nc2)cn1 (single isomer, unassigned) [29 Isomer 2] | 5.56
9 | CC(CNC(C(=O)Nc1ccc(N2CCN(C)S2(=O)=O)cn1)c1ccccc1)c1ccc(C#N)cc1 (single isomer, unassigned) [108 Isomer 3] | < 5.70
10 | (R, S)- and (S, S)-2-((2- (4- cyanophenyl)propyl)ami- no)-N-(5-(1,3-dimethyl- 1H-pyrazol-4-yl)pyridin- 2-yl)-2-phenylacetamide [113 Isomer 1] | 5.74
11 | CC(CNC(C(=O)Nc1ccc(-n2cnc(C(C)(C)C)c2)cn1)c1ccccc1)c1ccc(C#N)cc1 (single isomer, unassigned) [59 Isomer 2] | < 5.70
12 | CC(CNC(C(=O)Nc1ccc(-c2cnn(C)c2)cn1)c1ccccc1)c1ccc(C#N)cc1F (single isomer, unassigned) [90 Isomer 4] | < 5.70
13 | CC(Cc1ccc(Cl)cc1)NC(C(=O)Nc1ccc(-c2cnn(C)c2)cc1)c1ccccc1 (single isomer, unassigned) [3 Isomer 4] | 5.41
14 | Cn1cc(-c2ncc(NC(=O)C(NCCc3ccc(C#N)cc3)c3ccccc3)cn2)cn1 (single isomer, unassigned) [23 Isomer 2] | < 5.30
15 | Cc1ncc(C(C)CNC(C(=O)Nc2ccc(-c3cnn(C)c3)cn2)c2ccccc2)cn1 (single isomer, unassigned) [150 Isomer 4] | 6.21
16 | CC(CNC(C(=O)Nc1ccc(-c2cnn(C)n2)cn1)c1ccccc1)c1ccc(C(F)(F)F)cc1 (single isomer, unassigned) [99 Isomer 2] | 5.99
17 | C[C@H](CNC(C(=O)Nc1ccc(-c2cnn(C)c2)cn1)c1cncc(F)c1)c1ccc(C#N)cc1 (single isomer, unassigned) [129 Isomer 2] | 7.69
18 | COc1ccc(C(NCCc2ccc(C#N)cc2)C(=O)Nc2ccc(-c3cnn(C)c3)cn2)cc1 (single isomer, unassigned) [63 Isomer 2] | < 5.70
19 | Cc1cn(-c2ccc(NC(=O)C(NCCc3ccc(C#N)cc3)c3ccccc3)nc2)nn1 (single isomer, unassigned) [78 Isomer 1] | 6.53
20 | CC1CN(C)C(=O)CN1c1ccc(NC(=O)C(NC[C@@H](C)c2ccc(C#N)cc2)c2ccccc2)nc1 (single isomer, unassigned) [125 Isomer 1] | 5.78
21 | N#Cc1ccc(CCNC(C(=O)Nc2ccc(N3CCCC3)nc2)c2ccccc2)cc1 (single isomer, unassigned) [35 Isomer 1] | < 5.30
22 | N#Cc1ccc(CCNC(C(=O)Nc2ccc(N3CCCC3)cn2)c2ccccc2)cc1 (single isomer, unassigned) [37 Isomer 2] | 5.43
23 | CC(CNC(C(=O)Nc1ccc(-c2cn[nH]c2)cn1)c1ccccc1)c1ccc(C#N)cc1 (single isomer, unassigned) [104 Isomer 1] | 5.86
